Assay results from patent publication US12419306B2, “Mesostigmata mite control composition” (MEIJI SEIKA PHARMA CO., LTD., priority 2018, dated 2025).

How the values were obtained:
Format in all cases: in vivo
[1] = tested on: red mites (Dermanyssus gallinae); assay: Test Example 1: Control Effect 1 on Red Mites, Pasteur pipette contact test, 72 hours; details: for Ratio of dead and affected mites: 72 hours, unfed adult red mites
Text: The tip of a Pasteur pipette was sealed with Parafilm, and a methanol solution of the compound A, or each pesticide (another pesticide) (single agent) described in the left columns of Tables 2, 4, and 6 described below, or a mixture (mixed agent) of the compound A and each pesticide described in the left column of Tables 2, 4, and 6 described below at a predetermined concentration was poured into the pipette through an upper portion thereof. One minute later, the Parafilm at the tip was detached, and the liquid agent was discharged. After the pipette was air dried, absorbent cotton was inserted to an upper end of the pipette, and 20 unfed adult red mites (Dermanyssus gallinae) were released into the pipette. After the tip was sealed with Hemato-Seal, the pipette was stored in the dark in an incubator at a temperature of 27 to 28° C. and a humidity of 50 to 60%. […] Then, the ratio (%) of dead and affected mites was calculated according to the following formula. The ratio (%) of dead and affected mites={(the number of dead mites+the number of affected mites)/(the number of survived mites+the number of affected mites+the number of dead mites)}×100

[2] = tested on: red mites (Dermanyssus gallinae); assay: Test Example 3: Control Effect 3 on Red Mites, Pasteur pipette contact test, 3 hours; details: unfed adult red mites
Text: The tip of a Pasteur pipette was sealed with Parafilm, and a methanol solution of the compound represented by the formula (11), the compound represented by the formula (12), or flupyrimin (single agent), or a mixture (mixed agents) of the compound represented by the formula (11) or the compound represented by the formula (12) and flupyrimin at a predetermined concentration was poured into the pipette from an upper portion thereof. One minute later, the Parafilm at the tip was removed, and the liquid agent was discharged. After the pipette was air dried, absorbent cotton was inserted to an upper end of the pipette, and 20 unfed adult red mites (Dermanyssus gallinae) were released into the pipette. After the tip was sealed with Hemato-Seal, the pipette was stored in the dark in an incubator at a temperature of 27 to 28° C. and a humidity of 50 to 60%. After 3 hours had passed since the treatment, the mites were observed under a stereomicroscope to determine whether the mites were dead or alive and whether the mites were affected. Then, the ratio (%) of dead and affected mites was calculated according to the following formula. The ratio (%) of dead and affected mites={(the number of dead mites+the number of affected mites)/(the number of survived mites+the number of affected mites+the number of dead mites)}×100

[3] = tested on: red mites (Dermanyssus gallinae); assay: Test Example 2: Control Effect 2 on Red Mites, Pasteur pipette contact test, 3 hours; details: unfed adult red mites
Description: One minute later, the Parafilm at the tip was detached, and the liquid agent was discharged. […] Then, the ratio (%) of dead and affected mites was calculated according to the following formula.

[4] = Dermanyssus gallinae, 72 h, read-out: Ratio of dead and affected mites

abamectin was tested, and the “Ratio of dead and affected mites” value ([1]; single agent 50 ppm) was 69.9%.
For `CCc1nc2ccc(F)c(F)c2c(OC(=O)C2CC2)c1C` [Formula (11)], the “Ratio of dead and affected mites” value ([2]; single agent 10 ppm) was 53.4%, the “Ratio of dead and affected mites” value ([2]; single agent 20 ppm) was 62.9% and the “Ratio of dead and affected mites” value ([3]; single agent 5 ppm) was 53.7%. For the same molecule, the “Ratio of dead and affected mites” value ([3]; single agent 10 ppm) was 53.4% and the “Ratio of dead and affected mites” value ([3]; single agent 20 ppm) was 62.9%.
`O=C(N=c1ccccn1Cc1ccc(Cl)nc1)C(F)(F)F` [Flupyrimin, flupyrimin] was tested, and the “Ratio of dead and affected mites” value ([2]; single agent 50 ppm) was 48.8%, the “Ratio of dead and affected mites” value ([2]; single agent 200 ppm) was 48.5% and the “Ratio of dead and affected mites” value ([2]; single agent 1000 ppm) was 40.9%. The “Ratio of dead and affected mites” value ([1]; single agent 50 ppm) was 65.3%, the “Ratio of dead and affected mites” value ([1]; single agent 200 ppm) was 58.6% and the “Ratio of dead and affected mites” value ([1]; single agent 1000 ppm) was 83.2%. The “Ratio of dead and affected mites” value ([1]; single agent 5000 ppm) was 75.0%.
Molecule `CC1(C)[C@H](C(=O)O[C@H](C#N)c2cccc(Oc3ccccc3)c2)[C@@H]1C=C(Br)Br` [Deltamethrin, deltamethrin] has a pest or weed control at 50 ppm [1, 4] of 75.8%.
In the case of `CCC(C)c1ccccc1OC(=O)NC` (stereo not drawn) [Fenobucarb, fenobucarb], the pest or weed control at 50 ppm [1, 4] is reported as 43.5%.
With `CNC(=O)Oc1cccc2c1OC(C)(C)O2` [Bendiocarb, bendiocarb] the pest or weed control at 50 ppm [1, 4] was 30.5%.
`CNC(=O)Oc1cccc2ccccc12` [Carbaryl, carbaryl] gave a pest or weed control at 50 ppm [1, 4] of 46.6%.
`COP(=O)(OC)C(O)C(Cl)(Cl)Cl` (stereo not drawn) [Trichlorfon, trichlorfon] showed a pest or weed control at 200 ppm [1, 4] of 84.7%.
`COP(=S)(OC)Oc1ccc([N+](=O)[O-])c(C)c1` [Fenitrothion, fenitrothion] showed a pest or weed control at 200 ppm [1, 4] of 71.8%.
For `CCc1nc2ccc(F)c(F)c2c(OC(=O)OC)c1C` [Formula (12)], the “Ratio of dead and affected mites” value ([2]; single agent 20 ppm) was 65.5%, the “Ratio of dead and affected mites” value ([3]; single agent 10 ppm) was 50.0% and the “Ratio of dead and affected mites” value ([3]; single agent 20 ppm) was 65.5%.
With `CC(C)=CC1C(C(=O)OCc2cccc(Oc3ccccc3)c2)C1(C)C` (stereo not drawn) [Phenothrin, phenothrin] the pest or weed control at 500 ppm [1, 4] was 65.2%.
For `COC(=O)Oc1c(C)c(C)nc2ccc(F)c(F)c12` [Formula (13)], the “Ratio of dead and affected mites” value ([3]; single agent 10 ppm) was 89.9%.
In the case of `CC(C)=CC1C(C(=O)OCN2C(=O)C3=C(CCCC3)C2=O)C1(C)C` (stereo not drawn) [Tetramethrin, tetramethrin (phthalthrin)], the pest or weed control at 10 ppm [1, 4] is reported as 39.8%.
`CC1(C)C(C=C(Cl)Cl)C1C(=O)OCc1cccc(Oc2ccccc2)c1` (stereo not drawn) [Permethrin, permethrin] was tested, and the pest or weed control at 50 ppm [1, 4] was 49.6%.
In the case of `CNC(=O)Oc1ccccc1OC(C)C` [Propoxur, propoxur], the pest or weed control at 200 ppm [1, 4] is reported as 77.9%.
